molecular target: Prothrombin (Homo sapiens, UniProt P00734); test: Compound was evaluated for the inhibitory activity against thrombin.

Compound | Ki [pM]
CC(C)(C)OC(=O)N1C[C@H](C(=O)N2CCC[C@H]2C(=O)N[C@@H](CCCCN)B2O[C@@H]3C[C@@H]4C[C@@H](C4(C)C)[C@]3(C)O2)[C@@H](c2cccc(C(F)(F)F)c2)C1 | 3100
CC1(C)[C@@H]2C[C@H]3OB([C@H](CCCCN)NC(=O)[C@@H]4CCCN4C(=O)[C@@H]4CNC[C@H]4c4cccc(C(F)(F)F)c4)O[C@@]3(C)[C@H]1C2 | 500
NCCCC[C@H](NC(=O)[C@@H]1CCCN1C(=O)CCc1ccccc1)B(O)O | 800
CC1(C)[C@@H]2C[C@H]3OB([C@H](CCCCN)NC(=O)[C@@H]4CCCN4C(=O)[C@H]4CNC[C@@H]4c4cccc(C(F)(F)F)c4)O[C@@]3(C)[C@H]1C2 | 5600
CC12OB(C(CCCCN)NC(=O)[C@@H]3CCCN3C(=O)[C@H]3CCCC[C@@H]3c3ccccc3)OC1C[C@@H]1C[C@H]2C1(C)C (stereo partly drawn) | 30000

Continued by falling Ki, values first:

Ki [pM] | Compound
780 | NCCCC[C@H](NC(=O)[C@@H]1CCCN1C(=O)CCc1cccc(C(F)(F)F)c1)B(O)O
460 | NCCC[C@H](NC(=O)[C@@H]1CCCN1C(=O)[C@@H]1CCCC[C@H]1c1ccccc1)B(O)O
320 | CC(C)(C)OC(=O)N1C[C@@H](C(=O)N2CCC[C@H]2C(=O)N[C@@H](CCCCN)B2O[C@@H]3C[C@@H]4C[C@@H](C4(C)C)[C@]3(C)O2)[C@H](c2cccc(C(F)(F)F)c2)C1

Source: ChEMBL document CHEMBL1129708, “Design and synthesis of ring-constrained boropeptide thrombin inhibitors” (Bioorg Med Chem Lett, 1996)
